In brackets after ≈: the same amount, converted by molar mass. Values belong to the molecule of their own block, whether it stands above or below them.
Experiments:
[1] = target: Tyrosine-protein kinase BTK (Mus musculus, UniProt P35991)
[2] = Clearance in rat; type: ADME, organism-based; details: in vivo
[3] = Oral bioavailability in rat compound administered as solution in 20% (v/v) cremophor EL and 10% (v/v) ethanol in water; type: ADME, organism-based; details: in vivo
hERG (KCNH2) = hERG (KCNH2) (Homo sapiens, UniProt Q12809); assay: Inhibition of human ERG at 10 uM
hERG (KCNH2), sequence (Q12809 whole entry): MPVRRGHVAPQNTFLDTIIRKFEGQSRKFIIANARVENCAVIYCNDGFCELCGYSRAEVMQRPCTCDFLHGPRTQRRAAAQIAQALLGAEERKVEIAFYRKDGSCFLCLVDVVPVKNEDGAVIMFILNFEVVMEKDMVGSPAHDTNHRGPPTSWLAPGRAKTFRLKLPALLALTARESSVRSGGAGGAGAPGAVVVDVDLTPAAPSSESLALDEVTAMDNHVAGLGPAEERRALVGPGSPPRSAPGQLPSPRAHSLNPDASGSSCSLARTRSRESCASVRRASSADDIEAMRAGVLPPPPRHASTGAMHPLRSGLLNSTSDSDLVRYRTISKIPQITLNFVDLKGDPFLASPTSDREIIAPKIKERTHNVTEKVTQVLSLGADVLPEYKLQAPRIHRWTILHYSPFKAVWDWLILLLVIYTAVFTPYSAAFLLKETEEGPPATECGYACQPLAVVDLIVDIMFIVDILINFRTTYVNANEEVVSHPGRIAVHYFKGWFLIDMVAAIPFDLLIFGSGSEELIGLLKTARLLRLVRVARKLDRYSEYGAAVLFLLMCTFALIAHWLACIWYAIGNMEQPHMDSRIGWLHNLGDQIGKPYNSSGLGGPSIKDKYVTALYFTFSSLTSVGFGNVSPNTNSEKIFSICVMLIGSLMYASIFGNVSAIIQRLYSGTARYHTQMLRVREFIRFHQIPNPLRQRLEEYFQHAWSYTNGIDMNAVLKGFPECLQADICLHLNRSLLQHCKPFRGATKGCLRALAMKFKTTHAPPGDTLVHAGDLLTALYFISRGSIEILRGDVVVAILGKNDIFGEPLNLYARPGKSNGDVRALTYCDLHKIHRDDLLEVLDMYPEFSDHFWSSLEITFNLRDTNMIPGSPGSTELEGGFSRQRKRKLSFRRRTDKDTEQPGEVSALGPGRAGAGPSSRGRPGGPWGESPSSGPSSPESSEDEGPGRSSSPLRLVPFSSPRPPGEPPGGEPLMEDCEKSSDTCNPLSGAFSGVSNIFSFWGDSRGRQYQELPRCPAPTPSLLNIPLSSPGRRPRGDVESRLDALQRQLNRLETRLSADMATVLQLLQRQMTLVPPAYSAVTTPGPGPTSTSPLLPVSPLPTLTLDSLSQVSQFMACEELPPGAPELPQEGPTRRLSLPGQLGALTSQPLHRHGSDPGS

Salmonella typhimurium [4] = assay: Toxicity in Salmonella typhimurium TA98 in presence of S9 fraction; type: organism-based; details: salmonella enterica subsp. enterica serovar typhimurium
Salmonella typhimurium [5] = assay: Toxicity in Salmonella typhimurium TA98 in absence of S9 fraction; type: organism-based; details: salmonella enterica subsp. enterica serovar typhimurium
Salmonella typhimurium [6] = assay: Toxicity in Salmonella typhimurium TA100 in presence of S9 fraction; type: organism-based; details: salmonella enterica subsp. enterica serovar typhimurium
Salmonella typhimurium [7] = assay: Toxicity in Salmonella typhimurium TA100 in absence of S9 fraction; type: organism-based; details: salmonella enterica subsp. enterica serovar typhimurium
[8] = Solubility of the compound in fasted-state simulated intestinal fluid at pH 6.8; type: ADME
[9] = Clearance in mouse; type: ADME, organism-based; details: in vivo
[10] = Clearance in dog; type: ADME, organism-based, Canis lupus familiaris; details: in vivo
[11] = Clearance in cynomolgus monkey; type: ADME, organism-based, Macaca fascicularis; details: in vivo
[12] = Oral bioavailability in mouse; type: ADME, organism-based; details: in vivo
[13] = Oral bioavailability in rat compound administered as suspension in crystalline freebase in 0.5% (w/v) methylcellulose and 0.2% (w/v) polysorbate 80 in water; type: ADME, organism-based; details: in vivo
[14] = Oral bioavailability in dog compound administered as solution in 60% polyethylene glycol 400 in water; type: ADME, organism-based, Canis lupus familiaris; details: in vivo
[15] = Oral bioavailability in dog compound administered as as suspension in crystalline freebase in 0.5% (w/v) methylcellulose and 0.2% (w/v) polysorbate 80 in water; type: ADME, organism-based, Canis lupus familiaris; details: in vivo
[16] = Oral bioavailability in cynomolgus monkey; type: ADME, organism-based, Macaca fascicularis; details: in vivo
Homo sapiens [17] = assay: Drug metabolism in healthy human plasma assessed as formation of M1 metabolite at 35 to 105 mg, po; type: ADME, organism-based; details: in vivo
[18] = target: T1, Tyrosine-protein kinase BTK (Homo sapiens, UniProt Q06187); assay: Inhibition of BTK (unknown origin) after 1 hr by FRET assay
T1 sequence (Q06187 whole entry): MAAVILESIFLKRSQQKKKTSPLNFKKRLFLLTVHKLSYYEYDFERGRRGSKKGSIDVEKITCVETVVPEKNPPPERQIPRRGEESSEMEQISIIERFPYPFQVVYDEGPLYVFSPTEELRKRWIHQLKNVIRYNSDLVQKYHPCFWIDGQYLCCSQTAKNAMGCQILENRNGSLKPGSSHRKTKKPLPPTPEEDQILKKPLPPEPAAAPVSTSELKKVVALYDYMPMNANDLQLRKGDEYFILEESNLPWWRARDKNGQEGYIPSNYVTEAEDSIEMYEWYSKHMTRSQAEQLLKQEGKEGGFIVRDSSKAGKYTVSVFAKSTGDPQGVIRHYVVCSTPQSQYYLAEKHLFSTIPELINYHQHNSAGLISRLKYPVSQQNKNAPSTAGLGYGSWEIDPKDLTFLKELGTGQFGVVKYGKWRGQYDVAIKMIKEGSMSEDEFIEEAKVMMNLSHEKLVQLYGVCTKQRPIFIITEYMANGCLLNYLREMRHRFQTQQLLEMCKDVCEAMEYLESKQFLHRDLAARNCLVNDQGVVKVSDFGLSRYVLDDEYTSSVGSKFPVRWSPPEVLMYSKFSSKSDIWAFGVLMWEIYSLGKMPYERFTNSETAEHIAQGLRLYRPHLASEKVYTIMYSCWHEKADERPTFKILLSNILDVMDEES

[19] = target: T1, Tyrosine-protein kinase BTK
Homo sapiens [20] = assay: Drug metabolism in healthy human plasma treated with GDC-0834 at 35 to 105 mg, po; type: ADME, organism-based; details: in vivo

Tyrosine-protein kinase BTK (Mus musculus, UniProt P35991), sequence (P35991 whole entry): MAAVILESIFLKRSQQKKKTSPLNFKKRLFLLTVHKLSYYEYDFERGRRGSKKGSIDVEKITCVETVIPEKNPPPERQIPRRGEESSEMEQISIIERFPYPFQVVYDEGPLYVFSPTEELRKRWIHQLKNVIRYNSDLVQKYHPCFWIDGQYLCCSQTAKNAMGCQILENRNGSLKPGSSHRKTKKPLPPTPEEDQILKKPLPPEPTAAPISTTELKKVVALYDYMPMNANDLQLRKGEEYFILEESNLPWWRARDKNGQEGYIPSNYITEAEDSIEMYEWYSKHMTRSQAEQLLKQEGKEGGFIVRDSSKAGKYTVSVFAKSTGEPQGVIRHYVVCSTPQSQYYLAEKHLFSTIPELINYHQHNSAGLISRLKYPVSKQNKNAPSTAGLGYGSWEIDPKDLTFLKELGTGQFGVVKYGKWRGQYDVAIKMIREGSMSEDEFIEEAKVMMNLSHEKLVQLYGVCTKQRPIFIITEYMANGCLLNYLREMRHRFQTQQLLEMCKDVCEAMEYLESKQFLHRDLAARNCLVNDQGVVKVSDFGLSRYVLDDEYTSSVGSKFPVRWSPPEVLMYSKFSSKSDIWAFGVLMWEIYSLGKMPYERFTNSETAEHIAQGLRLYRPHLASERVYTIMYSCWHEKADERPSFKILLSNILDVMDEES

Compound: Cc1c(NC(=O)c2ccc(C(C)(C)C)cc2)cccc1-c1cn(C)c(=O)c(Nc2ccc(C(=O)N3CCOCC3)cc2)n1
IC50 [1]: 150 nM

Compound: Cc1c(NC(=O)c2cc3c(s2)CCCC3)cccc1-c1cn(C)c(=O)c(Nc2ccc([C@@H]3C(=O)N(C)CCN3C)cc2)n1
clearance [2]: 4.4 mL/min/kg | bioavailability [3]: 35% | inhibition at 10 µM (hERG (KCNH2)): 27% | Activity (Salmonella typhimurium [4]): Non-toxic | Activity (Salmonella typhimurium [5]): Non-toxic | Activity (Salmonella typhimurium [6]): Non-toxic | Activity (Salmonella typhimurium [7]): Non-toxic | solubility [8]: 7 µg/mL (≈ 11.7 µM) | clearance [9]: 43 mL/min/kg | clearance [10]: 14 mL/min/kg | clearance [11]: 33 mL/min/kg | bioavailability [12]: 18% | bioavailability [13]: 16% | bioavailability [14]: 35% | bioavailability [15]: 32% | bioavailability [16]: 16% | Drug metabolism (Homo sapiens [17]): metabolite_detected

Compound: Cc1ccc(C(=O)Nc2cccc(-c3cn(C)c(=O)c(Nc4ccc(C(=O)N5CCOCC5)cc4)n3)c2C)cc1
IC50 [18]: 860 nM

Compound: CCc1ccc(C(=O)Nc2cccc(-c3cn(C)c(=O)c(Nc4ccc(C(=O)N5CCOCC5)cc4)n3)c2C)cc1
IC50 [18]: 225 nM

Compound: CCC(C)(C)c1ccc(C(=O)Nc2cccc(-c3cn(C)c(=O)c(Nc4ccc(C(=O)N5CCOCC5)cc4)n3)c2C)cc1
IC50 [19]: 40 nM | IC50 [1]: 80 nM

Compound: Cc1c(NC(=O)c2ccc(C(C)(C)C)s2)cccc1-c1cn(C)c(=O)c(Nc2ccc(C(=O)N3CCOCC3)cc2)n1
IC50 [1]: 490 nM

Compound: Cc1c(NC(=O)c2ccc(C(C)(C)C)nc2)cccc1-c1cn(C)c(=O)c(Nc2ccc(C(=O)N3CCOCC3)cc2)n1
IC50 [19]: 130 nM | IC50 [1]: 3500 nM

Compound: Cc1c(NC(=O)c2cnc(C(C)(C)C)cn2)cccc1-c1cn(C)c(=O)c(Nc2ccc(C(=O)N3CCOCC3)cc2)n1
IC50 [19]: 70 nM | IC50 [1]: 890 nM

Compound: Cc1c(NC(=O)c2cc3c(s2)CCCC3)cccc1-c1cn(C)c(=O)c(Nc2ccncn2)n1
clearance [2]: 5.4 mL/min/kg | bioavailability [3]: 37%

Compound: Cc1c(NC(=O)c2cc3c(s2)CCCC3)cccc1-c1cn(C)c(=O)c(Nc2ccc(-c3ncc[nH]3)cc2)n1
IC50 [1]: 23900 nM

Compound: Cc1c(NC(=O)c2cc3c(s2)CCCC3)cccc1-c1cn(C)c(=O)c(Nc2ccc([C@H]3C(=O)N(C)CCN3C)cc2)n1
clearance [2]: 11 mL/min/kg | bioavailability [3]: 41%

Compound: Cc1c(N)cccc1-c1cn(C)c(=O)c(Nc2ccc([C@@H]3C(=O)N(C)CCN3C)cc2)n1
Drug metabolism (Homo sapiens [20]): metabolite_detected

Continued, values first:

IC50 [18]: 4600 nM
Compound: Cc1c(NC(=O)c2ccccc2)cccc1-c1cn(C)c(=O)c(Nc2ccc(C(=O)N3CCOCC3)cc2)n1

IC50 [19]: 230 nM | IC50 [1]: 410 nM
Compound: Cc1c(NC(=O)c2ccc(N(C)C)cc2)cccc1-c1cn(C)c(=O)c(Nc2ccc(C(=O)N3CCOCC3)cc2)n1

IC50 [19]: 30 nM | IC50 [1]: 580 nM
Compound: Cc1c(NC(=O)c2ccc(C3(C)CC3)cc2)cccc1-c1cn(C)c(=O)c(Nc2ccc(C(=O)N3CCOCC3)cc2)n1

IC50 [19]: 150 nM | IC50 [1]: 2800 nM
Compound: Cc1c(NC(=O)c2ccc(C(C)(C)O)cc2)cccc1-c1cn(C)c(=O)c(Nc2ccc(C(=O)N3CCOCC3)cc2)n1

IC50 [19]: 90 nM | IC50 [1]: 1100 nM
Compound: Cc1c(NC(=O)c2ccc([Si](C)(C)C)cc2)cccc1-c1cn(C)c(=O)c(Nc2ccc(C(=O)N3CCOCC3)cc2)n1

IC50 [19]: 270 nM | IC50 [1]: 3700 nM
Compound: Cc1c(NC(=O)c2cnc(C(C)(C)C)nc2)cccc1-c1cn(C)c(=O)c(Nc2ccc(C(=O)N3CCOCC3)cc2)n1

IC50 [19]: 50 nM
Compound: Cc1c(NC(=O)c2ncc(C(C)(C)C)cn2)cccc1-c1cn(C)c(=O)c(Nc2ccc(C(=O)N3CCOCC3)cc2)n1

clearance [2]: 6 mL/min/kg | bioavailability [3]: 29% | IC50 [1]: 230 nM
Compound: Cc1c(NC(=O)c2cc3c(s2)CCCC3)cccc1-c1cn(C)c(=O)c(Nc2ccc(C(=O)N3CCOCC3)cc2)n1

IC50 [1]: 1300 nM
Compound: Cc1c(NC(=O)c2cc3c(s2)CCOC3)cccc1-c1cn(C)c(=O)c(Nc2ccc(C(=O)N3CCOCC3)cc2)n1

clearance [2]: 9.2 mL/min/kg | bioavailability [3]: 53% | IC50 [1]: 5000 nM
Compound: Cc1c(NC(=O)c2cc3c(s2)CCCC3)cccc1-c1cn(C)c(=O)c(Nc2cccnc2)n1

IC50 [1]: 1100 nM
Compound: Cc1c(NC(=O)c2cc3c(s2)CCCC3)cccc1-c1cn(C)c(=O)c(Nc2ccc3[nH]ccc3c2)n1

IC50 [1]: 1300 nM
Compound: Cc1c(NC(=O)c2cc3c(s2)CCCC3)cccc1-c1cn(C)c(=O)c(Nc2ccn3ccnc3c2)n1

clearance [2]: 111 mL/min/kg | bioavailability [3]: < 5% | IC50 [1]: 60 nM
Compound: Cc1c(NC(=O)c2cc3c(s2)CCCC3)cccc1-c1cn(C)c(=O)c(Nc2ccc(C3CCN(C)CC3)cc2)n1

IC50 [1]: 800 nM
Compound: Cc1c(NC(=O)c2cc3c(s2)CCCC3)cccc1-c1cn(C)c(=O)c(Nc2ccc(N3CC[C@@H](N(C)C)C3)cc2)n1
